Key:
[1] = target: Activin receptor type-2B (Homo sapiens) (UniProt Q13705); conditions: Compound concentration 1000.0 nM
[2] = target: Cyclin-dependent kinase 13 (Homo sapiens) (UniProt Q14004); conditions: Compound concentration 1000.0 nM
[3] = target: Cyclin-dependent kinase 4 (Homo sapiens) (UniProt P11802); conditions: Compound concentration 1000.0 nM
[4] = target: Cyclin-dependent kinase 9 (Homo sapiens) (UniProt P50750); conditions: Compound concentration 1000.0 nM
[5] = target: Dual specificity protein kinase CLK3 (Homo sapiens) (UniProt P49761); conditions: Compound concentration 1000.0 nM
[6] = target: Casein kinase II subunit alpha (Homo sapiens) (UniProt P68400); conditions: Compound concentration 1000.0 nM
[7] = system: Epidermal growth factor receptor (Homo sapiens), P00533 [L858R]; conditions: Compound concentration 1000.0 nM
[8] = target: Ephrin type-A receptor 5 (Homo sapiens) (UniProt P54756); conditions: Compound concentration 1000.0 nM
[9] = target: Ephrin type-B receptor 6 (Homo sapiens) (UniProt O15197); conditions: Compound concentration 1000.0 nM
[10] = target: Receptor tyrosine-protein kinase erbB-3 (Homo sapiens) (UniProt P21860); conditions: Compound concentration 1000.0 nM
[11] = target: Receptor tyrosine-protein kinase erbB-4 (Homo sapiens) (UniProt Q15303); conditions: Compound concentration 1000.0 nM
[12] = target: Fibroblast growth factor receptor 4 (Homo sapiens) (UniProt P22455); conditions: Compound concentration 1000.0 nM
[13] = system: Receptor-type tyrosine-protein kinase FLT3 (Homo sapiens), P36888 [K663Q]; conditions: Compound concentration 1000.0 nM
[14] = target: Receptor-type tyrosine-protein kinase FLT3 (Homo sapiens) (UniProt P36888); conditions: Compound concentration 1000.0 nM
[15] = target: Homeodomain-interacting protein kinase 4 (Homo sapiens) (UniProt Q8NE63); conditions: Compound concentration 1000.0 nM
[16] = target: Tyrosine-protein kinase JAK1 (Homo sapiens) (UniProt P23458); conditions: Compound concentration 1000.0 nM
[17] = target: Serine/threonine-protein kinase LATS1 (Homo sapiens) (UniProt O95835); conditions: Compound concentration 1000.0 nM
[18] = target: Leucine-rich repeat serine/threonine-protein kinase 2 (Homo sapiens) (UniProt Q5S007); conditions: Compound concentration 1000.0 nM
[19] = target: MAP kinase-activated protein kinase 5 (Homo sapiens) (UniProt Q8IW41); conditions: Compound concentration 1000.0 nM
[20] = target: Serine/threonine-protein kinase MARK1 (Homo sapiens) (UniProt Q9P0L2); conditions: Compound concentration 1000.0 nM
[21] = target: Tyrosine-protein kinase Mer (Homo sapiens) (UniProt Q12866); conditions: Compound concentration 1000.0 nM
[22] = target: Myosin light chain kinase (Homo sapiens) (UniProt Q32MK0); conditions: Compound concentration 1000.0 nM
[23] = target: Mitogen-activated protein kinase kinase kinase 10 (Homo sapiens) (UniProt Q02779); conditions: Compound concentration 1000.0 nM
[24] = target: Serine/threonine-protein kinase 3 (Homo sapiens) (UniProt Q13188); conditions: Compound concentration 1000.0 nM
[25] = target: Serine/threonine-protein kinase PAK 2 (Homo sapiens) (UniProt Q13177); conditions: Compound concentration 1000.0 nM
[26] = target: Cyclin-dependent kinase 2 homolog (Plasmodium falciparum (isolate 3D7)) (UniProt P61075); conditions: Compound concentration 1000.0 nM
[27] = target: Phosphatidylinositol 4,5-bisphosphate 3-kinase catalytic subunit alpha isoform (Homo sapiens) (UniProt P42336); conditions: Compound concentration 1000.0 nM
[28] = system: Phosphatidylinositol 4,5-bisphosphate 3-kinase catalytic subunit alpha isoform (Homo sapiens), P42336 [H1047L]; conditions: Compound concentration 1000.0 nM
[29] = system: Phosphatidylinositol 4,5-bisphosphate 3-kinase catalytic subunit alpha isoform (Homo sapiens), P42336 [H1047Y]; conditions: Compound concentration 1000.0 nM
[30] = target: Serine/threonine-protein kinase pim-1 (Homo sapiens) (UniProt P11309); conditions: Compound concentration 1000.0 nM
[31] = target: Serine/threonine-protein kinase pim-3 (Homo sapiens) (UniProt Q86V86); conditions: Compound concentration 1000.0 nM
[32] = target: Serine/threonine-protein kinase PLK4 (Homo sapiens) (UniProt O00444); conditions: Compound concentration 1000.0 nM
[33] = target: Serine/threonine-protein kinase D2 (Homo sapiens) (UniProt Q9BZL6); conditions: Compound concentration 1000.0 nM
[34] = target: cGMP-dependent protein kinase 2 (Homo sapiens) (UniProt Q13237); conditions: Compound concentration 1000.0 nM
[35] = target: Proto-oncogene tyrosine-protein kinase receptor Ret (Homo sapiens) (UniProt P07949); conditions: Compound concentration 1000.0 nM
[36] = target: Ribosomal protein S6 kinase alpha-4 (Homo sapiens) (UniProt O75676); conditions: Compound concentration 1000.0 nM
[37] = target: Ribosomal protein S6 kinase beta-1 (Homo sapiens) (UniProt P23443); conditions: Compound concentration 1000.0 nM
[38] = target: STE20-like serine/threonine-protein kinase (Homo sapiens) (UniProt Q9H2G2); conditions: Compound concentration 1000.0 nM
[39] = target: Tyrosine-protein kinase Srms (Homo sapiens) (UniProt Q9H3Y6); conditions: Compound concentration 1000.0 nM
[40] = target: Serine/threonine-protein kinase 36 (Homo sapiens) (UniProt Q9NRP7); conditions: Compound concentration 1000.0 nM
[41] = target: Serine/threonine-protein kinase TAO3 (Homo sapiens) (UniProt Q9H2K8); conditions: Compound concentration 1000.0 nM
[42] = target: Serine/threonine-protein kinase ULK1 (Homo sapiens) (UniProt O75385); conditions: Compound concentration 1000.0 nM
[43] = target: Serine/threonine-protein kinase WNK3 (Homo sapiens) (UniProt Q9BYP7); conditions: Compound concentration 1000.0 nM
[44] = target: Alpha-1B adrenergic receptor (Homo sapiens) (UniProt P35368); conditions: Compound concentration 10.0 uM
[45] = target: Sigma non-opioid intracellular receptor 1 (Homo sapiens) (UniProt Q99720); conditions: Compound concentration 10.0 uM

Dual specificity protein kinase CLK3 (Homo sapiens), sequence (P49761 whole entry, looked up): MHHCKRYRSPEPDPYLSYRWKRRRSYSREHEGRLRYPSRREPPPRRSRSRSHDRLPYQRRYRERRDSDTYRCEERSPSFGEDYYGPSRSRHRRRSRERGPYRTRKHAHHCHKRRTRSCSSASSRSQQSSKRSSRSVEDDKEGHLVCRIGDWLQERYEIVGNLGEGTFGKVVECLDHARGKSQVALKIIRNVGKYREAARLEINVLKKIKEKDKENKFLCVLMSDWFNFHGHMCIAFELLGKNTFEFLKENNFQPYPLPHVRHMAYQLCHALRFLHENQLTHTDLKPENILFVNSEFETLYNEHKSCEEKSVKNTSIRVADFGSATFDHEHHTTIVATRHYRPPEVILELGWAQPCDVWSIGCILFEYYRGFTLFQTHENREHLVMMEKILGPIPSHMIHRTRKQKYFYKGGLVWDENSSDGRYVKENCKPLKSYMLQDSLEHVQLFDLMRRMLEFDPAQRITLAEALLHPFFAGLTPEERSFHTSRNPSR
cGMP-dependent protein kinase 2 (Homo sapiens), sequence (Q13237 whole entry): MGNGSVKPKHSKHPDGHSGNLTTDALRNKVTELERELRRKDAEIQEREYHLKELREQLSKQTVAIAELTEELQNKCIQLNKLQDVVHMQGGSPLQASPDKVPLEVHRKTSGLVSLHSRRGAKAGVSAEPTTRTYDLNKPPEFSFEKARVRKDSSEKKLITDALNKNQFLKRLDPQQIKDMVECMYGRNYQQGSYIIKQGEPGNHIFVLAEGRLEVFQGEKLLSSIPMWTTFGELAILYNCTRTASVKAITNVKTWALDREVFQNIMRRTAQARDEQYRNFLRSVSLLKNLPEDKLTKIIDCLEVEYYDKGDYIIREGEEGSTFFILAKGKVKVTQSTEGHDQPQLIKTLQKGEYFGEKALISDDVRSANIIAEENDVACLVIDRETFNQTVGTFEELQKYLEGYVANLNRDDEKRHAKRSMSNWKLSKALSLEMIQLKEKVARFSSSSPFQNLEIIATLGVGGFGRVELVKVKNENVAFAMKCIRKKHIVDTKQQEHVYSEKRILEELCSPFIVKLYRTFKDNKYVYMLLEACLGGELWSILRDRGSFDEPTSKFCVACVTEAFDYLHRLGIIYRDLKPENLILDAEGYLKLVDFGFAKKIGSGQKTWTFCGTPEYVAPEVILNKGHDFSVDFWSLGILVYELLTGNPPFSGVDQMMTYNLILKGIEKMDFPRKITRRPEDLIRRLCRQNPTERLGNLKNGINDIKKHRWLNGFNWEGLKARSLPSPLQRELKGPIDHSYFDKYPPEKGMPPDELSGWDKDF
Serine/threonine-protein kinase D2 (Homo sapiens), sequence (Q9BZL6 whole entry): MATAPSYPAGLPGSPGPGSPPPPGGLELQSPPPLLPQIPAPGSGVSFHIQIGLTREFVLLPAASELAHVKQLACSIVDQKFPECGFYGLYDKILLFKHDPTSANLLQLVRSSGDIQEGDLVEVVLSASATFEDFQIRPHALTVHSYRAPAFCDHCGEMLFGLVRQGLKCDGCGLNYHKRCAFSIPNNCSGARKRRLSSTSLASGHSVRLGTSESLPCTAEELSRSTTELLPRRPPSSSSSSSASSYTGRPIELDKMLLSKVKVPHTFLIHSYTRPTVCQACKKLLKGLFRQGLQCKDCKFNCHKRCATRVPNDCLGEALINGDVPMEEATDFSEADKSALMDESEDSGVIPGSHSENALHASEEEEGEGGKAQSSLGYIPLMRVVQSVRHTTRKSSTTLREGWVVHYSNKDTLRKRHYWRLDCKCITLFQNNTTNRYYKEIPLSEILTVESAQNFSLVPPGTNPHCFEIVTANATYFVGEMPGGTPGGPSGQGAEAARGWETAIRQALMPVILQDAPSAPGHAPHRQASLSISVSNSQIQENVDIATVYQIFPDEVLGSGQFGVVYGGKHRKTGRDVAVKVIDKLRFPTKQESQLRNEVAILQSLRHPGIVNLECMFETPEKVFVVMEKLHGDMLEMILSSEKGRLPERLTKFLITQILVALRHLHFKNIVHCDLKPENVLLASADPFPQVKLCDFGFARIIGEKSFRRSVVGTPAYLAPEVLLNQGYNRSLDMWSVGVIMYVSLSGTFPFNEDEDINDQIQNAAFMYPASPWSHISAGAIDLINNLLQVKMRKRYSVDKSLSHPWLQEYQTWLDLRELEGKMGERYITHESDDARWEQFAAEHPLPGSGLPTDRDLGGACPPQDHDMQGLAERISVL
Mitogen-activated protein kinase kinase kinase 10 (Homo sapiens), sequence (Q02779 whole entry, looked up): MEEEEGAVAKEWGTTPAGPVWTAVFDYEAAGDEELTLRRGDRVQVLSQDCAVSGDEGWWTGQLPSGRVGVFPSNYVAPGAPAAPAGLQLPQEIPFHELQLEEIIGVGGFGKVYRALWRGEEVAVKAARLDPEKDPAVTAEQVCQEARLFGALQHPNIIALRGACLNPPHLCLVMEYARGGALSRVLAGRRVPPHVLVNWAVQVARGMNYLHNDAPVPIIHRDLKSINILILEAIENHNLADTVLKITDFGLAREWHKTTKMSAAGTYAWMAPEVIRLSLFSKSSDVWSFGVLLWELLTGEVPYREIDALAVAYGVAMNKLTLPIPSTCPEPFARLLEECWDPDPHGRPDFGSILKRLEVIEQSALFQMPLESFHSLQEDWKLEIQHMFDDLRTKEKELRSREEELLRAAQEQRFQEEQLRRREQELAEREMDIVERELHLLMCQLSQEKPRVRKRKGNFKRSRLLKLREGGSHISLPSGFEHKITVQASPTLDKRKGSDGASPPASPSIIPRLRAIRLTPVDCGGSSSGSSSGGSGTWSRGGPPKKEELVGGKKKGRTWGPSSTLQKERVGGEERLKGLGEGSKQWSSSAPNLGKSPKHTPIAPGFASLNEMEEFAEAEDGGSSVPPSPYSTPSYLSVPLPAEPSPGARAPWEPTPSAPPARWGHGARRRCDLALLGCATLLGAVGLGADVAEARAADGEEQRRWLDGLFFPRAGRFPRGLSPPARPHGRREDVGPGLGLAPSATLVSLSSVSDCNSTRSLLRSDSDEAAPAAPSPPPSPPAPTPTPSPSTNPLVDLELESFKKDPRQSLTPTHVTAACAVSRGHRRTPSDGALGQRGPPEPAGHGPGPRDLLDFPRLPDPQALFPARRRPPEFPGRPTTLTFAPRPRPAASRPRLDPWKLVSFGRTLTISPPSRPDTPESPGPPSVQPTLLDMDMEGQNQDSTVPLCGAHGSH
Serine/threonine-protein kinase MARK1 (Homo sapiens), sequence (Q9P0L2 whole entry, looked up): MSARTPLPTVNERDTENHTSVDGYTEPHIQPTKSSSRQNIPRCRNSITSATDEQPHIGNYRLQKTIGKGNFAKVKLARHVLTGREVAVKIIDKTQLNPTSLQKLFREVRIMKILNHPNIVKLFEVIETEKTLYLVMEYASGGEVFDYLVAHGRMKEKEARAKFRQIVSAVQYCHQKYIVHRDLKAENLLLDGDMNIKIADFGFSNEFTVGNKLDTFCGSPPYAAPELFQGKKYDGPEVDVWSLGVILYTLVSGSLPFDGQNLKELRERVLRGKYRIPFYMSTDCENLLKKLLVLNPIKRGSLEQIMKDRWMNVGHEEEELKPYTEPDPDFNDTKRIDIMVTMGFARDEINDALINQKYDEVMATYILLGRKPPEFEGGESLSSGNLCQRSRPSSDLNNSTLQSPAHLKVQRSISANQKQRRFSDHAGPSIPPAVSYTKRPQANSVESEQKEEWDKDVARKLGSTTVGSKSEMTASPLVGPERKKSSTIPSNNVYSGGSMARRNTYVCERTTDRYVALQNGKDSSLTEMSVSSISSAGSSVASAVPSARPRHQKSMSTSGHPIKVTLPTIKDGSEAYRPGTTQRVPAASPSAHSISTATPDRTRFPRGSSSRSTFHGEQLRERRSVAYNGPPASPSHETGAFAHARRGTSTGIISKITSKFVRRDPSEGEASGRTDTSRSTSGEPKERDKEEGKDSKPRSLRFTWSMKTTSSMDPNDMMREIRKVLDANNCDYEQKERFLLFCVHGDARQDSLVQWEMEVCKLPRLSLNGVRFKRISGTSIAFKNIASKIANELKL
Tyrosine-protein kinase Srms (Homo sapiens), sequence (Q9H3Y6 whole entry): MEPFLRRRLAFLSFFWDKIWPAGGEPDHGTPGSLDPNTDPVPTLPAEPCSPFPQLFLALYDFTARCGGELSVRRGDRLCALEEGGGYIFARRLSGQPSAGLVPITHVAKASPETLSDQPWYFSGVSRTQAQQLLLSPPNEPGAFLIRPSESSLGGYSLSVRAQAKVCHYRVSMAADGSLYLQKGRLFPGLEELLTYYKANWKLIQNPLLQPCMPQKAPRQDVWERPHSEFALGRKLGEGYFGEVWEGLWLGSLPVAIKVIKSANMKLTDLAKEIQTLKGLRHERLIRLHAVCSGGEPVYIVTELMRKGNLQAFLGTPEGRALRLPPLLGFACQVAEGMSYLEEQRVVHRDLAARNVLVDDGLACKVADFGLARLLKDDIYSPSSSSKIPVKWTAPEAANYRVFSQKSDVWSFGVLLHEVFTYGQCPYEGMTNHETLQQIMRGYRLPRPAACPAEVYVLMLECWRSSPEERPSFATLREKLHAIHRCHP
Serine/threonine-protein kinase PAK 2 (Homo sapiens), sequence (Q13177 whole entry): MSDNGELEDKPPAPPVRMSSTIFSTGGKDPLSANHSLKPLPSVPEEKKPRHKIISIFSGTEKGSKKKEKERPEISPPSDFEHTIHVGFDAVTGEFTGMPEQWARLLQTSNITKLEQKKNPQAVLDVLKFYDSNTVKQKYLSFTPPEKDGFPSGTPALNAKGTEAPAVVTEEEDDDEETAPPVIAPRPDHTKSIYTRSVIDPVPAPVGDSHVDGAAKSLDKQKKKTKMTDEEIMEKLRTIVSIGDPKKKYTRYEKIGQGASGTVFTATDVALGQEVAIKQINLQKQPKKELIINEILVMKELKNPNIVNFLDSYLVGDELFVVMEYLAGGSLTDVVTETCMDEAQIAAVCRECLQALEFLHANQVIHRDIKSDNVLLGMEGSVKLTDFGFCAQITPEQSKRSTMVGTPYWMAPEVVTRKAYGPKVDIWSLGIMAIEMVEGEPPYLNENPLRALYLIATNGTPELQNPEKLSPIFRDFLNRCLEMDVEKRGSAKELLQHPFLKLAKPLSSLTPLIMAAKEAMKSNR

O=C(NCc1ncc(C(F)(F)F)cc1Cl)c1ccc2c(c1)C1(CCS(=O)(=O)CC1)[C@H](C1CC1)N2S(=O)(=O)c1ccc(F)cc1 [BAY-784]
inactive: residual activity [1] 90% | residual activity [2] 88% | residual activity [3] 88% | residual activity [4] 100% | residual activity [5] 86% | residual activity [6] 66% | residual activity [7] 94% | residual activity [8] 100% | residual activity [9] 80% | residual activity [10] 100% | residual activity [11] 70% | residual activity [12] 100% | residual activity [13] 100% | residual activity [14] 95% | residual activity [15] 100% | residual activity [16] 86% | residual activity [17] 91% | residual activity [18] 82% | residual activity [19] 100% | residual activity [20] 100% | residual activity [21] 100% | residual activity [22] 79% | residual activity [23] 100% | residual activity [24] 100% | residual activity [25] 100% | residual activity [26] 94% | residual activity [27] 100% | residual activity [28] 77% | residual activity [29] 90% | residual activity [30] 100% | residual activity [31] 100% | residual activity [32] 92% | residual activity [33] 98% | residual activity [34] 77% | residual activity [35] 98% | residual activity [36] 91% | residual activity [37] 64% | residual activity [38] 100% | residual activity [39] 71% | residual activity [40] 100% | residual activity [41] 99% | residual activity [42] 90% | residual activity [43] 86% | inhibition [44] -4.46% | inhibition [45] 17.8%

O=C(NCc1ncc(C(F)(F)F)cc1Cl)c1ccc2c(c1)C1(CCS(=O)(=O)CC1)[C@@H](C1CC1)N2S(=O)(=O)c1ccc(F)cc1 [BAY-786]
inactive: residual activity [1] 100% | residual activity [2] 89% | residual activity [3] 88% | residual activity [4] 100% | residual activity [5] 100% | residual activity [6] 67% | residual activity [7] 100% | residual activity [8] 77% | residual activity [9] 94% | residual activity [10] 100% | residual activity [11] 72% | residual activity [12] 100% | residual activity [13] 100% | residual activity [14] 94% | residual activity [15] 97% | residual activity [16] 85% | residual activity [17] 97% | residual activity [18] 98% | residual activity [19] 100% | residual activity [20] 100% | residual activity [21] 100% | residual activity [22] 76% | residual activity [23] 100% | residual activity [24] 87% | residual activity [25] 84% | residual activity [26] 97% | residual activity [27] 100% | residual activity [28] 85% | residual activity [29] 85% | residual activity [30] 74% | residual activity [31] 85% | residual activity [32] 92% | residual activity [33] 90% | residual activity [34] 89% | residual activity [35] 100% | residual activity [36] 84% | residual activity [37] 72% | residual activity [38] 100% | residual activity [39] 60% | residual activity [40] 100% | residual activity [41] 80% | residual activity [42] 80% | residual activity [43] 70% | inhibition [44] -8.58% | inhibition [45] 37.6%

Source: ChEMBL document CHEMBL4507266, “Data for DCP probe BAY-784” (2021)
